For 25 compounds, IC50 results are on record in patent publication US7704995B2 (Exelixis, Inc., priority 2003, dated 2010).

Some results are limits rather than exact numbers.

In general, IC50 refers to the concentration that gives 50% inhibition.

One test concerns the target T1, Chk1 (Homo sapiens, UniProt O14757).
T1 construct: purchased Upstate Biotechnology
T1 sequence (O14757 1-476): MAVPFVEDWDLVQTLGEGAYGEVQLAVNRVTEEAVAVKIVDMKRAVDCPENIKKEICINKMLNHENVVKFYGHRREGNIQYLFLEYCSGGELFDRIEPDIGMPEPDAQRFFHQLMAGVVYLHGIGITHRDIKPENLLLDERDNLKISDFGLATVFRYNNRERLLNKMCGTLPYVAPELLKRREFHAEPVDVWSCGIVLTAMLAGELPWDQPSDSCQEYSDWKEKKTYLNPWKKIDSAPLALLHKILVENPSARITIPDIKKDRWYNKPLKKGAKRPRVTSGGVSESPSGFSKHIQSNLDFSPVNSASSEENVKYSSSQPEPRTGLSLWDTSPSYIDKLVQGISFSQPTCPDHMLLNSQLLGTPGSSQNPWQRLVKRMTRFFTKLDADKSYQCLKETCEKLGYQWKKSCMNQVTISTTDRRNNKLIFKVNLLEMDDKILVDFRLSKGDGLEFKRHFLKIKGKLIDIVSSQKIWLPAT
Put plainly: Chk1 kinase assay: incorporation of γ-33P ATP into immobilized myelin basic protein. In kind it is biochemical. The note with it: Table 11, Chk1 only; class symbols A-D; read-out: Chk1 IC50. In short, it runs like this:
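Incorporation of γ-33P into myelin basic protein coated on plates was scintillation-counted after 1 h at room temperature, duplicate points. Unlabeled ATP was 10 μM with 10 nM Chk1, 30 μM with 20 nM Chk2; buffer Hepes pH 7.6, MgCl2, DTT, 1% DMSO. Output IC50, optionally converted to Ki.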
For `Nc1ncc(-c2cccc(C(=O)NCc3cccc(Cl)c3Cl)c2)nc1C(=O)N[C@H]1CCCNC1` [Example 1003, 3-amino-6-[3-({[(2,3-dichlorophenyl)methyl]amino}carbonyl)phenyl]-N-[(3S)-piperidin-3-yl]pyrazine-2-carboxamide], the IC50 is under 0.05 µM. The same measure, in the same setting: the value for `Nc1ncc(-c2cccc(C(=O)NCc3c(F)cccc3Cl)c2)nc1C(=O)N[C@H]1CCCNC1` [Example 995, 3-amino-6-[3-({[(2-chloro-6-fluorophenyl)methyl]amino}carbonyl)phenyl]-N-[(3S)-piperidin-3-yl]pyrazine-2-carboxamide] was under 0.05 µM.

On to `Nc1ncc(-c2cccc(CNS(=O)(=O)c3ccc4cccnc4c3)c2)nc1C(=O)N[C@H]1CCCNC1` [Example 907, 3-amino-N-[(3S)-piperidin-3-yl]-6-(3-{[(quinolin-7-ylsulfonyl)amino]methyl}phenyl)pyrazine-2-carboxamide], for which the half-inhibitory concentration (IC50) was in the range of 0.05 to 1 µM. On the same count and under the same terms, as for `Nc1ncc(-c2cccc(CNC(=O)Nc3ccc4c(c3)OCO4)c2)nc1C(=O)N[C@H]1CCCNC1` [Example 956, 3-amino-6-[3-({[(1,3-benzodioxol-5-ylamino)carbonyl]amino}methyl)phenyl]-N-[(3S)-piperidin-3-yl]pyrazine-2-carboxamide], the figure is under 0.05 µM. Same read-out and setting: as for `Nc1ncc(-c2cccc(C(=O)NCc3ccccc3-c3ccccc3)c2)nc1C(=O)N[C@H]1CCCNC1` [Example 847, 3-amino-6-(3-{[(biphenyl-2-ylmethyl)amino]carbonyl}phenyl)-N-[(3S)-piperidin-3-yl]pyrazine-2-carboxamide], the figure is under 0.05 µM.

The same test, now with this note: Table 11; Chk1 only; read-out: Chk1 IC50.
With `Cc1ccc(N/N=C/c2nc(-c3cccc(C(=O)NCc4ccccc4)c3)cnc2N)cc1` [Example 680, 3-(5-amino-6-{(E)-[(4-methylphenyl)hydrazono]methyl}pyrazin-2-yl)-N-(phenylmethyl)benzamide], the IC50 is at least 10 µM.

On to `CNC(=O)c1nc(-c2cccc(CNC3CCc4c(F)cccc43)c2)cnc1N` (stereo not shown) [Example 473, 3-amino-6-(3-{[(4-fluoro-2,3-dihydro-1H-inden-1-yl)amino]methyl}phenyl)-N-methylpyrazine-2-carboxamide], for which the half-inhibitory concentration (IC50) was 0.05 to 1 µM. The same measure, in the same setting: the value for `Nc1ncc(-c2cccc(C(=O)NCc3ccccc3)c2)nc1C(=O)N1CCOCC1` [Example 566, 3-[5-amino-6-(morpholin-4-ylcarbonyl)pyrazin-2-yl]-N-(phenylmethyl)benzamide] was 1 to 10 µM; that for `Nc1ncc(-c2cccc(C(=O)N3CCc4ccccc4C3)c2)nc1C(=O)N[C@H]1CCNC1` [Example 714, 3-amino-6-[3-(3,4-dihydroisoquinolin-2(1H)-ylcarbonyl)phenyl]-N-[(3S)-pyrrolidin-3-yl]pyrazine-2-carboxamide] was 0.05 to 1 µM; that for `CN(C)C(=O)c1nc(-c2cccc(CN[C@H]3CCc4ccccc43)c2)cnc1N` [Example 554, 3-amino-6-(3-{[(1S)-2,3-dihydro-1H-inden-1-ylamino]methyl}phenyl)-N,N-dimethylpyrazine-2-carboxamide] was 0.05 to 1 µM.

`Nc1ncc(-c2cccc(C(=O)NCc3ccccc3)c2)nc1-c1nc(-c2ccccc2)n(-c2ccccn2)n1` [Example 792, 3-[5-amino-6-(5-phenyl-1-pyridin-2-yl-1H-1,2,4-triazol-3-yl)pyrazin-2-yl]-N-(phenylmethyl)benzamide]: the half-maximal inhibitory concentration (IC50) was 1 to 10 µM. Still for that read-out and setting: the value for `CC(C)(C)OC(=O)N1CC[C@H](NC(=O)c2nc(-c3cccc(C(=O)NCc4c(F)cccc4Cl)c3)cnc2N)C1` [Example 740, 1,1-dimethylethyl (3S)-3-[({3-amino-6-[3-({[(2-chloro-6-fluorophenyl)methyl]amino}carbonyl)phenyl]pyrazin-2-yl}carbonyl)amino]pyrrolidine-1-carboxylate] was 1 to 10 µM.

`CNC(=O)c1nc(-c2ccc3ccnc(NCc4ccccc4)c3c2)cnc1N` [Example 516, 3-amino-N-methyl-6-{1-[(phenylmethyl)amino]isoquinolin-7-yl}pyrazine-2-carboxamide]: the IC50 lay within 1 to 10 µM.

As for `CNC(=O)c1nc(-c2cccc(CNC3CCc4ccc(F)cc43)c2)cnc1N` (stereo not shown) [Example 475, 3-amino-6-(3-{[(6-fluoro-2,3-dihydro-1H-inden-1-yl)amino]methyl}phenyl)-N-methylpyrazine-2-carboxamide], the IC50 is under 0.05 µM.

Still in this test, the particulars now being: read-out: Chk1 IC50.
Regarding `CNC(=O)c1nc(-c2cccc(NC(=O)c3ccccc3)c2)cnc1N` [Example 81, 3-amino-N-methyl-6-{3-[(phenylcarbonyl)amino]phenyl}pyrazine-2-carboxamide], the half-inhibitory concentration (IC50) fell in the range of 0.05 to 1 µM. The same measure, in the same setting: as for `CNC(=O)c1nc(-c2cccc(C(=O)NCc3ccccc3N3CCOCC3)c2)cnc1N` [Example 341, 3-amino-N-methyl-6-[3-({[(2-morpholin-4-ylphenyl)methyl]amino}carbonyl)phenyl]pyrazine-2-carboxamide], the figure is 0.05 to 1 µM; as for `CNC(=O)c1nc(-c2cccc(C(=O)Nc3ccc(C)cc3)c2)cnc1N` [Example 221, 3-amino-N-methyl-6-(3-{[(4-methylphenyl)amino]carbonyl}phenyl)pyrazine-2-carboxamide], 1 to 10 µM.

Regarding `CNC(=O)c1nc(-c2cccc(C(=O)NCc3ccc(C(F)(F)F)nc3)c2)cnc1N` [Example 406, 3-amino-N-methyl-6-{3-[({[6-(trifluoromethyl)pyridin-3-yl]methyl}amino)carbonyl]phenyl}pyrazine-2-carboxamide], the IC50 lay in the range of 0.05 to 1 µM.

As for `CNC(=O)c1nc(-c2cccc(C(=O)NCC3CC3)c2)cnc1N` [Example 219, 3-amino-6-(3-{[(cyclopropylmethyl)amino]carbonyl}phenyl)-N-methylpyrazine-2-carboxamide], the 50% inhibitory concentration (IC50) was 0.05 to 1 µM. Same read-out and setting: the value for `CNC(=O)c1nc(-c2cccc(CO)c2)cnc1N` [Example 57, 3-amino-6-[3-(hydroxymethyl)phenyl]-N-methylpyrazine-2-carboxamide] was 0.05 to 1 µM; that for `CNC(=O)c1nc(-c2cccc(CNCc3cc(F)ccc3F)c2)cnc1N` [Example 388, 3-amino-6-[3-({[(2,5-difluorophenyl)methyl]amino}methyl)phenyl]-N-methylpyrazine-2-carboxamide] was 0.05 to 1 µM. Same read-out and setting: as for `CNC(=O)c1nc(-c2cccc(C(=O)NCc3cccc(N4CCOCC4)c3)c2)cnc1N` [Example 344, 3-amino-N-methyl-6-[3-({[(3-morpholin-4-ylphenyl)methyl]amino}carbonyl)phenyl]pyrazine-2-carboxamide], the figure is 1 to 10 µM; as for `CNC(=O)c1nc(-c2cccc(C(=O)N[C@@H]3CCC[C@H]3OCc3ccccc3)c2)cnc1N` [Example 163, 3-amino-N-methyl-6-{3-[({(1R,2R)-2-[(phenylmethyl)oxy]cyclopentyl}amino)carbonyl]phenyl}pyrazine-2-carboxamide], 1 to 10 µM; as for `CNC(=O)c1nc(-c2cccc(NC(=O)c3ccc(C)cc3)c2)cnc1N` [Example 119, 3-amino-N-methyl-6-(3-{[(4-methylphenyl)carbonyl]amino}phenyl)pyrazine-2-carboxamide], 0.05 to 1 µM. The same measure, in the same setting: the value for `CC[C@H](NC(=O)c1cccc(-c2cnc(N)c(C(=O)NC)n2)c1)c1ccccc1` [Example 147, 3-amino-N-methyl-6-[3-({[(1S)-1-phenylpropyl]amino}carbonyl)phenyl]pyrazine-2-carboxamide] was 1 to 10 µM.
